In brackets after ≈: the same amount, converted by molar mass.
Tests used:
Solubility in xylene = assay type: physicochemical; settings: organic solvent or mixture, o-xylene, 20° C., dark, liquid chromatography
Protocol: To illustrate the improved solubility in a common formulation solvent, xylene, of the compounds according to the invention, solubility tests were carried out with certain of these compounds and closely related compounds known from the literature. The test method is described below.
The compound (200 mg) was equilibrated with solvent (0.5 ml of o-xylene at 20° C. in the dark for 48 hours). After equilibration, the supernatant liquors were removed, centrifuged and then filtered. An aliquot portion of this (0.1 ml) was made up to volume (1 to 100 ml) with acetonitrile and then analyzed against standards by means of liquid chromatography.

[1] = test system: Spodoptera littoralis larvae; test: Insecticidal activity, sprayed diet (Test 1 (a)), toxicity vs parathion; assay type: in vivo, Egyptian cotton leafworm (Spodoptera littoralis); settings: second instar larvae; mortality 7 days after spraying; 50% mortality basis; standard parathion = 100
Protocol: (§1) The insecticidal and ovicidal activities of the compounds of the invention were assessed employing the pests, Egyptian cotton leafworm (Spodoptera littoralis, S.l.), mosquito (Aedes aegypti, A.a.) and eggs of Spodoptera littoralis, S.l.ov.
(§2) The test methods used for each species are described below. In each case the tests were conducted under normal insectary conditions (28° C.[…]; fluctuating light and humidity).
(§3) In each instance, the toxicity of the compound of the invention was compared to that of a standard pesticide (parathion), its relative toxicity then being expressed in terms of the relationship between the amount of compound of the invention and the amount of the standard pesticide required to produce the same percentage (50%) of mortality in the test insect. By assigning the standard pesticide an arbitrary rating of 100, the toxicities of the compounds of the invention were expressed in terms of the toxicity indices, which compares the toxicity of the compounds of the invention with that of the standard pesticide.
(a) Spodoptera littoralis--A solution or suspension of the test compound was made up over a range of concentrations in 10% acetone/water containing 0.025% Triton X100 (as surfactant). These solutions were sprayed using a logarithmic spraying machine onto petri dishes containing a nutritious diet on which the Spodoptera littoralis larvae had been reared. When the spray deposit had dried each dish was infested with 10 second instar larvae. Mortality assessments were made 7 days after spraying.

Aedes aegypti larvae = test: Insecticidal activity, larvae in treated water (Test 1 (b)), toxicity vs parathion; assay type: in vivo, mosquito (Aedes aegypti); set-up: key: Toxicity Index: parathion = 100; 200 = twice as active, 50 = half; settings: early fourth instar larvae; final mortality when all larvae emerged as adults or died; 50% mortality basis; standard parathion = 100
Protocol: as §1, §2
as §3, with “pesticide. That is to say, a test compound having a Toxicity Index of 50 would be half as active, while one having a Toxicity Index of 200 would be twice as active as the standard pesticide.” for “pesticide.”
(b) Aedes aegypti--Several solutions of the test compound of varying concentration were prepared in acetone. 100 microliter quantities were added to 100 milliliters of tap water, the acetone being allowed to evaporate off. Ten early fourth instar larvae were placed in the test solution; after 48 hours the (surviving) larvae were fed with animal feed pellets, and the final percentage mortality assessed when all the larvae had either pupated and emerged as adults or died.

[2] = test system: eggs of Spodoptera littoralis; test: Ovicidal activity, sprayed eggs (Test 1 (c)), toxicity vs parathion; assay type: in vivo, Egyptian cotton leafworm (Spodoptera littoralis); settings: eggs less than 24 hours old; approximately five days; 50% mortality basis; standard parathion = 100
Protocol: as §1, §2
as §3, with “pesticide. That is to say, a test compound having a Toxicity Index of 50 would be half as active, while one having a Toxicity Index of 200 would be twice as active as the standard pesticide.” for “pesticide.”
(c) Spodoptera littoralis (ovicide)--Solutions as described in (a) above were prepared. Eggs less than 24 hours old were obtained as follows. Adult Spodoptera littoralis were held in large plastic cylinders containing blotting paper on which the moths laid their batches of eggs. Egg batches containing approximately 60-70 eggs were cut from the blotting paper with a 1 cm surround. These were placed, eggs uppermost, on filter paper in the deeper half of 5 cm disposable petri dishes and each batch of eggs was then sprayed with a different test solution or the control solution. The dishes were covered until the control eggs had hatched, approximately five days. The percentage ovicidal mortality was then calculated.

solubility at 48 h (Solubility in xylene) [µg/mL]	Structure (SMILES)	Toxicity Index S.l. [1]	Toxicity Index A.a. (Aedes aegypti larvae)	Toxicity Index S.l.ov. [2]
5700 (≈ 12.1 mM)	O=C(NC(=O)c1c(F)cccc1F)Nc1ccc(Oc2ccc(C(F)(F)F)cc2Cl)cc1 [1-(4-(4-trifluoromethyl-2-chlorophenoxy)phenyl)-3-(2,6-difluorobenzoyl)urea, reference compound]	–	–	–
3700 (≈ 7.23 mM)	O=C(NC(=O)N(Sc1ccccc1[N+](=O)[O-])c1ccc(OC(F)(F)F)cc1)c1ccccc1Cl [Example 1, 2-Chloro-N-[[[4-(trifluoromethoxy)phenyl]-N-[(2-nitrophenyl)thio]amino]carbonyl]benzamide]	750	220	210
18800 (≈ 30.1 mM)	O=C(NC(=O)N(Sc1ccccc1[N+](=O)[O-])c1ccc(Oc2ccc(C(F)(F)F)cc2Cl)cc1)c1c(F)cccc1F [Example 3]	4500	–	0
–	O=C(NC(=O)N(Sc1ccccc1[N+](=O)[O-])c1ccc(Oc2ccc(C(F)(F)F)cc2Cl)cc1)c1ccccc1Cl [Example 35]	2500	82	0
–	CC(C)(C)c1ccc(SN(C(=O)NC(=O)c2c(F)cccc2F)c2ccc(Cl)cc2)cc1 [Example 36]	42	22	0
–	O=C(NC(=O)N(Sc1ccc(Br)cc1)c1ccc(Cl)cc1)c1c(F)cccc1F [Example 37]	51	26	850
–	O=C(NC(=O)N(Sc1ccccc1[N+](=O)[O-])c1cc(Cl)c(Oc2ccc([N+](=O)[O-])cc2)c(Cl)c1)c1c(F)cccc1F [Example 38]	330	30	0

Structure (SMILES)	solubility at 48 h (Solubility in xylene) [µg/mL]	Toxicity Index S.l. [1]	Toxicity Index A.a. (Aedes aegypti larvae)	Toxicity Index S.l.ov. [2]
O=C(NC(=O)c1ccccc1Cl)Nc1ccc(OC(F)(F)F)cc1 [1-(4-trifluoromethoxy-phenyl)-3-(2-chloro-benzoyl)-urea, reference compound]	2300 (≈ 6.41 mM)	–	–	–
